System: male spontaneously hypertensive rats
Assay: Decrease in systolic blood pressure in spontaneously hypertensive rats after intravenous bolus injection, indirect (tail-cuff) method
Assay type: in vivo, rat
Details: for Decrease in systolic blood pressure (mmHg) time after administration (hour) 0.5: 0.5 hour after administration; for Decrease in systolic blood pressure (mmHg) time after administration (hour) 4: 4 hours after administration
Method: As test animals, four male spontaneously hypertensive rats (weight 400 to 440 g) that were sufficiently adapted for feeding and in which hypertension was confirmed were used.
Physiological saline aqueous solution containing 2.5% Nicolle and 2.5% ethanol of sample was intravenously administered by bolus injection at a dose of 1 ml per 1 kg of body weight. Systolic blood pressure after administration was measured by the indirect (tail-cuff) method.

Compound | Decrease in systolic blood pressure (mmHg) time after administration (hour) 0.5 (dose 10 mg/kg i.v. bolus) [mmHg] | Decrease in systolic blood pressure (mmHg) time after administration (hour) 4 (dose 10 mg/kg i.v. bolus) [mmHg] | Decrease in systolic blood pressure (mmHg) time after administration (hour) 0.5 (dose 3 mg/kg i.v. bolus) [mmHg] | Decrease in systolic blood pressure (mmHg) time after administration (hour) 4 (dose 3 mg/kg i.v. bolus) [mmHg]
COc1cc(C(C#N)(CCCN2CCC(=C3c4ccccc4C=Cc4ccccc43)CC2)C(C)C)cc(OC)c1OC.Cl (stereo not drawn) [Example 126, 5-(4-(5H-Dibenzo[a,d]cyclohepten-5-ylidene)-1-piperidinyl)-2-isopropyl-2-(3,4,5-trimethoxyphenyl)valeronitrile hydrochloride] | −87 | −19 | – | –
Cl.Clc1ccccc1CN1CCC(=C2c3ccccc3C=Cc3ccccc32)CC1 [Example 128, 1-(2-Chlorobenzyl)-4-(5H-Dibenzo[a,d]cyclohepten-5-ylidene)piperidine hydrochloride] | −129 | −8 | – | –
Cl.Clc1cccc(CN2CCC(=C3c4ccccc4C=Cc4ccccc43)CC2)c1 [Example 129, 1-(3-Chlorobenzyl)-4-(5H-Dibenzo[a,d]cyclohepten-5-ylidene)piperidine hydrochloride] | −17 | −1 | – | –
Cl.Clc1ccc(CN2CCC(=C3c4ccccc4C=Cc4ccccc43)CC2)cc1 [Example 130, 1-(4-Chlorobenzyl)-4-(5H-Dibenzo[a,d]cyclohepten-5-ylidene)piperidine hydrochloride] | −42 | 9 | – | –
Cc1ccccc1CN1CCC(=C2c3ccccc3C=Cc3ccccc32)CC1.Cl [Example 131, 4-(5H-Dibenzo[a,d]cyclohepten-5-ylidene)-1-(2-methylbenyl)piperidine hydrochloride] | −116 | 2 | – | –
Cc1cccc(CN2CCC(=C3c4ccccc4C=Cc4ccccc43)CC2)c1.Cl [Example 132, 4-(5H-Dibenzo[a,d]cyclohepten-5-ylidene)-1-(3-methylbenyl)piperidine hydrochloride] | −106 | −5 | – | –
Cc1ccc(CN2CCC(=C3c4ccccc4C=Cc4ccccc43)CC2)cc1.Cl [Example 133, 4-(5H-Dibenzo[a,d]cyclohepten-5-ylidene)-1-(4-methylbenyl)piperidine hydrochloride] | – | – | −146 | −84
CCCCCCCN1CCC(=C2c3ccccc3C=Cc3ccccc32)CC1.Cl [Example 134, 4-(5H-Dibenzo[a,d]cyclohepten-5-ylidene)-1-heptylpiperidine hydrochloride] | −115 | −30 | – | –
CCCCCCCCCCCCCCCCCCCN1CCC(=C2c3ccccc3C=Cc3ccccc32)CC1.Cl [Example 135, 4-(5H-Dibenzo[a,d]cyclohepten-5-ylidene)-1-nondecylpiperidine hydrochloride] | −132 | −50 | – | –
CCCCCCCCCCCN1CCC(=C2c3ccccc3C=Cc3ccccc32)CC1.Cl [Example 136, 4-(5H-Dibenzo[a,d]cyclohepten-5-ylidene)-1-undecylpiperidine hydrochloride] | −100 | −40 | – | –
Cl.Cl.Nc1ccccc1CN1CCC(=C2c3ccccc3C=Cc3ccccc32)CC1 [Example 138, 1-(2-Aminobenzy)-4-(5H-Dibenzo[a,d]cyclohepten-5-ylidene)piperidine dihydrochloride] | −129 | −33 | – | –
Cl.Cl.Nc1cccc(CN2CCC(=C3c4ccccc4C=Cc4ccccc43)CC2)c1 [Example 139, 1-(3-Aminobenzy)-4-(5H-Dibenzo[a,d]cyclohepten-5-ylidene)piperidine dihydrochloride] | −139 | −89 | – | –
Cl.Cl.Nc1ccc(CN2CCC(=C3c4ccccc4C=Cc4ccccc43)CC2)cc1 [Example 140, 1-(4-Aminobenzy)-4-(5H-Dibenzo[a,d]cyclohepten-5-ylidene)piperidine dihydrochloride] | – | – | −113 | −101
Cl.O=[N+]([O-])c1cccc(CN2CCC(=C3c4ccccc4C=Cc4ccccc43)CC2)c1 [Example 142, 4-(5H-Dibenzo[a,d]cyclohepten-5-ylidene)-1-(3-nitrobenzyl)piperidine hydrochloride] | −43 | 0 | – | –
CCC(C#N)(CCCN1CCC(=C2c3ccccc3C=Cc3ccccc32)CC1)c1cccc(C(F)(F)F)c1.Cl (stereo not drawn) [Example 149, 5-(4-(5H-Dibenzo[a,d]cyclohepten-5-ylidene)-1-piperidinyl)-2-ethyl-2-(3-trifluoromethylphenyl)valeronitrile hydrochloride] | −116 | −32 | – | –
CCCCC(C#N)(CCCN1CCC(=C2c3ccccc3C=Cc3ccccc32)CC1)c1cccc(C(F)(F)F)c1.Cl (stereo not drawn) [Example 150, 2-Butyl-5-(4-(5H-Dibenzo[a,d]cyclohepten-5-ylidene)-1-piperidinyl)-2-(3-trifluoromethylphenyl)valeronitrile hydrochloride] | −110 | −47 | – | –
CCCCCCC(C#N)(CCCN1CCC(=C2c3ccccc3C=Cc3ccccc32)CC1)c1cccc(C(F)(F)F)c1.Cl (stereo not drawn) [Example 151, 5-(4-(5H-Dibenzo[ac]cyclohepten-5-ylidene)-1-piperidinyl)-2-hexyl-2-(3-trifluoromethylphenyl)valeronitrile hydrochloride] | −81 | −43 | – | –
C1=Cc2ccccc2C(=C2CCN(CCCCCCC3CCCCC3)CC2)c2ccccc21.Cl [Example 154, 1-Cyclohexyl-6-(4-(5H-dibenzo[a,d]cyclohepten-5-ylidene)-1-piperidinyl)hexane hydrochloride] | −131 | −105 | – | –
C1=Cc2ccccc2C(=C2CCN(CCCCCCCC3CCCCC3)CC2)c2ccccc21.Cl [Example 155, 1-Cyclohexyl-7-(4-(5H-dibenzo[a,d]cyclohepten-5-ylidene)-1-piperidinyl)heptane hydrochloride] | −131 | −105 | – | –
C1=Cc2ccccc2C(=C2CCN(CCCCCCCCC3CCCCC3)CC2)c2ccccc21.Cl [Example 156, 1-Cyclohexyl-8-(4-(5H-dibenzo[a,d]cyclohepten-5-ylidene)-1-piperidinyl)octane hydrochloride] | −110 | −42 | – | –
O=C(CCCC1CCCCC1)N1CCC(=C2c3ccccc3C=Cc3ccccc32)CC1 [Example 157, 1-(4-Cyclohexylbutanoyl)-4-(5H-dibenzo[a,d]cyclohepten-5-ylidene)piperidine] | −32 | −13 | – | –
Cl.N#Cc1ccccc1CN1CCC(=C2c3ccccc3C=Cc3ccccc32)CC1 [Example 158, 1-(2-Cyanobenzyl)-4-(5H-dibenzo[a,d]cyclohepten-5-ylidene)piperidine hydrochloride] | −8 | 7 | – | –
Cl.N#Cc1cccc(CN2CCC(=C3c4ccccc4C=Cc4ccccc43)CC2)c1 [Example 159, 1-(3-Cyanobenzyl)-4-(5H-dibenzo[a,d]cyclohepten-5-ylidene)piperidine hydrochloride] | −27 | −12 | – | –
Cl.N#Cc1ccc(CN2CCC(=C3c4ccccc4C=Cc4ccccc43)CC2)cc1 [Example 160, 1-(4-Cyanobenzyl)-4-(5H-dibenzo[a,d]cyclohepten-5-ylidene)piperidine hydrochloride] | −3 | −10 | – | –
C1=Cc2ccccc2C(=C2CCN(Cc3ccccn3)CC2)c2ccccc21.Cl.Cl [Example 161, 4-(5H-Dibenzo[a,d]cyclohepten-5-ylidene)-1-(2-Picolyl)piperidine dihydrochloride] | −64 | −12 | – | –
C1=Cc2ccccc2C(=C2CCN(Cc3cccnc3)CC2)c2ccccc21.Cl.Cl [Example 162, 4-(5H-Dibenzo[a,d]cyclohepten-5-ylidene)-1-(3-Picolyl)piperidine dihydrochloride] | −62 | −3 | – | –
C1=Cc2ccccc2C(=C2CCN(Cc3ccncc3)CC2)c2ccccc21.Cl.Cl [Example 163, 4-(5H-Dibenzo[a,d]cyclohepten-5-ylidene)-1-(4-Picolyl)piperidine dihydrochloride] | −1 | 4 | – | –
